Measured values from patent US20120270237A9, “METHODS FOR THE IDENTIFICATION OF KINASE INTERACTING MOLECULES AND FOR THE PURIFICATION OF KINASE PROTEINS” (Cellzone AG, priority 2009, published 2012).

What was measured:
PKN1 = PKN1 (Homo sapiens, UniProt Q16512); experiment: Kinobeads competition binding, L-363 cell lysate; parameters: endogenous in cells; conditions: 10 μM free compound, L-363 lysate
Procedure: To one aliquot of cell lysate 10 μM of the free compound (FIG. 3, CZC31326) was added and allowed to bind to proteins in the lysate. Then the affinity matrix with the immobilized compound was added to capture proteins that were not interacting with the previously added free compound. Beads were separated from the lysate and bead bound proteins were eluted in SDS sample buffer and subsequently separated by SDS-Polyacrylamide gel electrophoresis (FIG. 8). Suitable gel bands were cut out and subjected to in-gel proteolytic digestion with trypsin. The second lysate aliquot was processed identically, however no free compound was added (DMSO solvent control). Peptides originating from samples 1 and 2 were labeled with iTRAQ reagents (iTRAQ 114 and iTRAQ 117) and the combined samples were analyzed with a nano-flow liquid chromatography system coupled online to a tandem mass spectrometer (LC-MS/MS) experiment followed by iTRAQ reporter ion quantification in the MS/MS spectra as described in Example 2.
For this experiment the human plasma cell leukaemia line L-363 was used (German Collection of Microorganisms and Cell Cultures, DSMZ number ACC49, Braunschweig, Germany). Cells were treated for three hours with 20 μM of the proteasome inhibitor MG132 (Z-Leu-Leu-Leu-al, Sigma C2211) prior to cell harvesting.

GSK3A = GSK3A (Homo sapiens, UniProt P49840); experiment: Kinobeads competition binding, HL60 cell lysate; parameters: endogenous in cells; host or cells: HL60; conditions: 10 μM free compound
Procedure: (§1) To one aliquot of cell lysate 10 μM of the free compound (FIG. 3, CZC31326) was added and allowed to bind to proteins in the lysate. Then the affinity matrix with the immobilized compound (Example 1) was added to capture proteins that were not interacting with the previously added free compound. Beads were separated from the lysate and bead bound proteins were eluted in SDS sample buffer and subsequently separated by SDS-Polyacrylamide gel electrophoresis (FIG. 4). Suitable gel bands were cut out and subjected to in-gel proteolytic digestion with trypsin. The second lysate aliquot was processed identically, however no free compound was added (DMSO solvent control). Peptides originating from samples 1 and 2 were labeled with iTRAQ reagents (iTRAQ 114 and iTRAQ 117) and the combined samples were analyzed with a nano-flow liquid chromatography system coupled online to a tandem mass spectrometer (LC-MS/MS) experiment followed by iTRAQ reporter ion quantification in the MS/MS spectra (Ross et al., 2004. Mol. Cell. Proteomics 3(12):1154-1169). Further experimental protocols can be found in WO2006/134056 and a previous publication (Bantscheff et al., 2007. Nature Biotechnology 25, 1035-1044). Sepharose-beads with the immobilized compound (100 μl beads per pull-down experiment) were equilibrated in lysis buffer and incubated with a cell lysate sample containing 50 mg of protein on an end-over-end shaker (Roto Shake Genie, Scientific Industries Inc.) for 2 hours at 4° C. Beads were collected, transferred to Mobicol-columns (MoBiTech 10055) and washed with 10 ml lysis buffer containing 0.4% NP40 detergent, followed by 5 ml lysis buffer containing 0.2% detergent. To elute bound proteins, 60 μl 2×SDS sample buffer was added to the column. The column was incubated for 30 minutes at 50° C. and the eluate was transferred to a siliconized microfuge tube by centrifugation. Proteins were then alkylated with 108 mM iodoacetamid. Proteins were then separated by SDS-Polyacrylamide electrophoresis (SDS-PAGE). The peptide extracts of samples treated with 10 μM of free compound (CZC31326) and the solvent control (0.5% DMSO) were treated with different variants of the isobaric tagging reagent (iTRAQ Reagents Multiplex Kit, part number 4352135, Applied Biosystems, Foster City, Calif., USA). The iTRAQ reagents are a set of multiplexed, amine-specific, stable isotope reagents that can label peptides on amino groups in up to four different biological samples enabling simultaneous identification and quantitation of peptides. The iTRAQ reagents were used according to instructions provided by the manufacturer. The samples were resuspended in 10 μl 50 mM TEAB solution, pH 8.5 and 10 μl ethanol were added. The iTRAQ reagent was dissolved in 120 μl ethanol and 10 μl of reagent solution were added to the sample. The labeling reaction was performed at room temperature for one hour on a horizontal shaker and stopped by adding 5 μl of 100 mM TEAB and 100 mM glycine in water. The two labeled sampled were then combined, dried in a vacuum centrifuge and resuspended in 10 μl of 0.1% formic acid in water. Relative protein quantitation was performed using peak areas of iTRAQ reporter ion signals essentially as described in an earlier publication (Bantscheff et al., 2007. Nature Biotechnology 25, 1035-1044).

HPK1 = HPK1 (Homo sapiens, UniProt Q92918); experiment: Kinobeads competition binding, HL60 cell lysate; parameters: endogenous in cells; host or cells: HL60; conditions: 10 μM free compound
Procedure: as §1

IRAK1 = IRAK1 (Homo sapiens, UniProt P51617); experiment: Kinobeads competition binding, HL60 cell lysate; parameters: endogenous in cells; host or cells: HL60; conditions: 10 μM free compound
Procedure: as §1

MSK2 = MSK2 (Homo sapiens, UniProt O75676); experiment: Kinobeads competition binding, HL60 cell lysate; parameters: endogenous in cells; host or cells: HL60; conditions: 10 μM free compound
Procedure: as §1

TYK2 = TYK2 (Homo sapiens, UniProt P29597); experiment: Kinobeads competition binding, HL60 cell lysate; parameters: endogenous in cells; host or cells: HL60; conditions: 10 μM free compound
Procedure: as §1

HPK1, sequence (Q92918 whole entry): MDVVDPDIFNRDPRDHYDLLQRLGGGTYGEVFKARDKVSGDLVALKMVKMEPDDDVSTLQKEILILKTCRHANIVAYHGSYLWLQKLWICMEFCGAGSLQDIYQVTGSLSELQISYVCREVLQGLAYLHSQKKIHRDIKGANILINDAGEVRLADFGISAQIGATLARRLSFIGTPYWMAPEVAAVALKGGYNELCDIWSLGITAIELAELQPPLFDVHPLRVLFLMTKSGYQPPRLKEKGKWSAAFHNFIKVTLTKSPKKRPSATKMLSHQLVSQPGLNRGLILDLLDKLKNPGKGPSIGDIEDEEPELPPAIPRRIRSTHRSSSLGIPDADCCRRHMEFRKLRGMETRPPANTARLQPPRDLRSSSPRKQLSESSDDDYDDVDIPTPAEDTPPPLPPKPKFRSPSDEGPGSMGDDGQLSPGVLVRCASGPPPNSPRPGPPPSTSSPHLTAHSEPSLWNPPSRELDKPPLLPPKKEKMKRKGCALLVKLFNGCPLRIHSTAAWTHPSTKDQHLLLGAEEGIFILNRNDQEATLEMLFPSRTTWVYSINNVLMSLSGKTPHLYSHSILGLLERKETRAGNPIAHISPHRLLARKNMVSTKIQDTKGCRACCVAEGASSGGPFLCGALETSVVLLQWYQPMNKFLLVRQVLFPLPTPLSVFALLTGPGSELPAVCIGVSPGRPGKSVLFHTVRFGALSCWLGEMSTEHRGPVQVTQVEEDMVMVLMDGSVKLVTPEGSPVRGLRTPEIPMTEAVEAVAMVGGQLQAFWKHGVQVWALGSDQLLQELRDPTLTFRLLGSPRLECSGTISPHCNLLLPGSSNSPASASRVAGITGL
TYK2, sequence (P29597 whole entry): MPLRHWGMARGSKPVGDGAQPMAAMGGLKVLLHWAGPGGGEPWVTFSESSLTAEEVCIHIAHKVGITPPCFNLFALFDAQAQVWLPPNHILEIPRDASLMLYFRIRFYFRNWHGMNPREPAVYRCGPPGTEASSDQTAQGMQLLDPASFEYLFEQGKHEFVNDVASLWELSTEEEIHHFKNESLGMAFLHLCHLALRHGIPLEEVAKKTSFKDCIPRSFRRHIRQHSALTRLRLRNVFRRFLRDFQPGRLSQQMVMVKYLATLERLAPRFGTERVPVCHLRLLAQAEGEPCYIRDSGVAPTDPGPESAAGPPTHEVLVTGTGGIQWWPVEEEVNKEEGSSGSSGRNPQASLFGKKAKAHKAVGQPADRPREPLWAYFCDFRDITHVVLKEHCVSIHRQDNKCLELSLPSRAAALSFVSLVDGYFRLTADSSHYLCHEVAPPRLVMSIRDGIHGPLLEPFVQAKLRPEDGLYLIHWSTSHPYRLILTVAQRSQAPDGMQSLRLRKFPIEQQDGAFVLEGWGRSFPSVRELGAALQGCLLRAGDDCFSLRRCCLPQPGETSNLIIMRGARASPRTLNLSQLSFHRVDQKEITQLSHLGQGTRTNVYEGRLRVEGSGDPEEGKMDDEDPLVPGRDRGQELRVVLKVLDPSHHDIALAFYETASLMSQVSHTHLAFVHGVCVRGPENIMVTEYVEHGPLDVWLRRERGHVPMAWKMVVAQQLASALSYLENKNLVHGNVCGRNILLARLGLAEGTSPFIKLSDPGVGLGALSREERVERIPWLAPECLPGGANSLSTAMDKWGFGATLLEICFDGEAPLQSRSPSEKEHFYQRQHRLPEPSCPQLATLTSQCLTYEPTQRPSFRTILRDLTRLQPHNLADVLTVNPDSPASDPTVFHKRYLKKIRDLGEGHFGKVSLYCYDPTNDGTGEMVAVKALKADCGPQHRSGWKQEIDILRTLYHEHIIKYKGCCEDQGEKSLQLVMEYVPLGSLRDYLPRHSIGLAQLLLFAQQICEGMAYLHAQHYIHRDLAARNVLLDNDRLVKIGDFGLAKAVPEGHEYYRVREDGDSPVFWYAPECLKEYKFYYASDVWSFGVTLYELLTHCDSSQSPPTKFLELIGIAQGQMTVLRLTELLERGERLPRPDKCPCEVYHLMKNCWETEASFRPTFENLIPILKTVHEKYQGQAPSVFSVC
IRAK1, sequence (P51617 whole entry): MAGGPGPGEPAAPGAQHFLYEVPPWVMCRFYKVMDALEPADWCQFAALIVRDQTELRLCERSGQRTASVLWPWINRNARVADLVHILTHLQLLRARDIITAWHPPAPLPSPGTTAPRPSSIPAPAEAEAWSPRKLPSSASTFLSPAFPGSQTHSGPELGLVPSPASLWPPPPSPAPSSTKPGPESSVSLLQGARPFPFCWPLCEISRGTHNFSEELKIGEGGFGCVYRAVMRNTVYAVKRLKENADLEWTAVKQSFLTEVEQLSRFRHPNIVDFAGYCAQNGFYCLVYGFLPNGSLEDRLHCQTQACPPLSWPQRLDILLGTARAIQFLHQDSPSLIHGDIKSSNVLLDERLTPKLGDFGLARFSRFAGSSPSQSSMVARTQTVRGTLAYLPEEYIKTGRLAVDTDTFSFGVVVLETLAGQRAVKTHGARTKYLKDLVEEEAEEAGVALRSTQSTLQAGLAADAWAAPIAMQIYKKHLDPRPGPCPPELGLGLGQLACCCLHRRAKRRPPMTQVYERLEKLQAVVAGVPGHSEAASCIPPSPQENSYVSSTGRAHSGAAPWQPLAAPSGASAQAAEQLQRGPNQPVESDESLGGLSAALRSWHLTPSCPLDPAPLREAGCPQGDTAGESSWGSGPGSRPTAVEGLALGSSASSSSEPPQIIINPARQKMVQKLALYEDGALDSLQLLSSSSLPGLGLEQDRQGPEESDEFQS
GSK3A, sequence (P49840 whole entry): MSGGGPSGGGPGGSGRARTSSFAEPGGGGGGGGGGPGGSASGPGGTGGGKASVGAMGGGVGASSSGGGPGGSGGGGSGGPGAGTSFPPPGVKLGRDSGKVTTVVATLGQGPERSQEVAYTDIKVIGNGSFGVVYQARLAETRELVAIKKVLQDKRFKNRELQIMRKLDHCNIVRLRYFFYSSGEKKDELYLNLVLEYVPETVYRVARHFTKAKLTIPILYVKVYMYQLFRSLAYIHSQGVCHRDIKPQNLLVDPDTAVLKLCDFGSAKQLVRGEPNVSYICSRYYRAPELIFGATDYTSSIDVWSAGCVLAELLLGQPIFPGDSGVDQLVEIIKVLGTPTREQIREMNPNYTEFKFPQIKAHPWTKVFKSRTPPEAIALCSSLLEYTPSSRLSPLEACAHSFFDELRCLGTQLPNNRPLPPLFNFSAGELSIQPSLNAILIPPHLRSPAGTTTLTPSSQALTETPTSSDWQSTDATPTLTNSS
PKN1, sequence (Q16512 whole entry): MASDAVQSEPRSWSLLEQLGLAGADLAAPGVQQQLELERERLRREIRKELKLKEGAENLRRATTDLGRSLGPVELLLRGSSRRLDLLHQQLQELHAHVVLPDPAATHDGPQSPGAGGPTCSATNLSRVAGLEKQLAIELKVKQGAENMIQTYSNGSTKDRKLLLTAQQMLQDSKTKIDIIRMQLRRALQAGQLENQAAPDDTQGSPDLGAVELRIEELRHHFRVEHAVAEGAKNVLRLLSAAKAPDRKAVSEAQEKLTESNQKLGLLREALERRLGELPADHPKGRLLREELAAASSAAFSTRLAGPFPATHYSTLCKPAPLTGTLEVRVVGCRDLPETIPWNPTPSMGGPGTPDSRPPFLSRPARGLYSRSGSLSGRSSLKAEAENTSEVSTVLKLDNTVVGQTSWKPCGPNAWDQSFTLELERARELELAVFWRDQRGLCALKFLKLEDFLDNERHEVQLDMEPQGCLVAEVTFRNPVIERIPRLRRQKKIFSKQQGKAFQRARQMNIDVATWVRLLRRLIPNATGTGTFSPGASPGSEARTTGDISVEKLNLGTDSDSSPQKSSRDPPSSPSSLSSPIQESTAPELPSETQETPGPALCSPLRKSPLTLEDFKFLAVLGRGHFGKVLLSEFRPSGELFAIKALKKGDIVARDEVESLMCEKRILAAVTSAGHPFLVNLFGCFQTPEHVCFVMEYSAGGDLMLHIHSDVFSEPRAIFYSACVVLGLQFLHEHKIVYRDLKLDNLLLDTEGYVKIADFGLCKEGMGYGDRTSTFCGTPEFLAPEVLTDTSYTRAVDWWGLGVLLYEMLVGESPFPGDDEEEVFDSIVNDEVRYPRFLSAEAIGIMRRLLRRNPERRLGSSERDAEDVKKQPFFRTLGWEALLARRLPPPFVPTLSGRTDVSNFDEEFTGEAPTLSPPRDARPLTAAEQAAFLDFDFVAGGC
MSK2, sequence (O75676 whole entry): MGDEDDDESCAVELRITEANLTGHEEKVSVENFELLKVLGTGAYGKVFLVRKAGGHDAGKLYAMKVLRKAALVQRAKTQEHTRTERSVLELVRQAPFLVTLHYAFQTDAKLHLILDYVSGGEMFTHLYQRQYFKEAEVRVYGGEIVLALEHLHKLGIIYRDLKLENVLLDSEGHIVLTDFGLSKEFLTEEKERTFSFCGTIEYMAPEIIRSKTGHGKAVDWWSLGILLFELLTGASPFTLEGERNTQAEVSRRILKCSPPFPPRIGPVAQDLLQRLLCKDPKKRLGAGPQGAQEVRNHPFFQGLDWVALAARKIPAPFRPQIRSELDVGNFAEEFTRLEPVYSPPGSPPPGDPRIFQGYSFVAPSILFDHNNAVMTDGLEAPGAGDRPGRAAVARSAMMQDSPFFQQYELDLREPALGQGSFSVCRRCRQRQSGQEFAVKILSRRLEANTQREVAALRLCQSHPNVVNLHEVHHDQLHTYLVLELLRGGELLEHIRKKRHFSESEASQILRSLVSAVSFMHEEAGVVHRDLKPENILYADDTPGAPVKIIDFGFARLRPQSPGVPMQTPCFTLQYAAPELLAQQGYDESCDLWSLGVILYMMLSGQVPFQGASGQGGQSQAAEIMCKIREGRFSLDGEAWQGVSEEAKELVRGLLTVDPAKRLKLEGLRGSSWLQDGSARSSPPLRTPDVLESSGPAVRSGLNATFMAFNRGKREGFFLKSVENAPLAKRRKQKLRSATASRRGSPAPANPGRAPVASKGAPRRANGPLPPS

Structure (SMILES): CS(=O)(=O)Nc1ccccc1Nc1nc(Nc2cccc(OCCN)c2)ncc1Cl [CZC31326, N-(2-(2-(3-(2-aminoethoxy)phenylamino)-5-chloropyrimidin-4-ylamino)phenyl)methanesulfonamide]
- inhibition at 10 µM (PKN1): 95.9%
- inhibition at 10 µM (GSK3A): 96.2%
- inhibition at 10 µM (HPK1): 97.7%
- inhibition at 10 µM (IRAK1): 94.9%
- inhibition at 10 µM (MSK2): 96.8%
- Competition % (TYK2): 97.1%
